The results in this text go back to patent US10344049B2, “Substituted steroids for the treatment of cancer” (AQUAVAN TECHNOLOGY CO., LTD., priority 2017, dated 2019).

Common to all, as to assay type: cell-based
Assay [1] relates to African green monkey kidney cells Vero. The assay is described as follows: Cell viability test (Resazurin), Vero cells. How it is done: (§1) Cell viability was determined with Resazurin (at a final concentration of 25 μg/mL).
Assay [2] concerns human breast cancer cells MDA-MB-231. The experiment in a line: Cell viability test (Resazurin), MDA-MB-231 cells. The note with it: Homo sapiens. The protocol:
as §1
(In general: Resazurin is reduced to fluorescent resorufin, in cell work by metabolically active cells.)

For assay [3], the system named is human Glioblastoma cells U87-MG. The experiment in a line: Cell viability test (Resazurin), U87-MG cells. As to conditions: Homo sapiens, U-87 MG. The protocol:
as §1

In assay [4] the test system is human breast cancer cells MDA-MB-468. The experiment in a line: Cell viability test (Resazurin), MDA-MB-468 cells. As to conditions: Homo sapiens. How it is done: as §1
The test system of assay [5] is human liver cancer cells Mahlavu. The experiment in a line: Cell viability test (Resazurin), Mahlavu cells. The note with it: for IC50: Homo sapiens, Mahlavu. How it is done:
as §1

The subject of assay [6] is human lung cancer cells A549. The assay is described as follows: Cell viability test (Resazurin), A549 cells. The note with it: for IC50: Homo sapiens. Set-up: evaluation of ability to inhibit cell growth activity (IC50): scale not given here. The protocol:
as §1

Assay [7] concerns human colorectal cancer cells SW-480. The assay is described as follows: Cell viability test (Resazurin), SW480 cells. The note with it: Homo sapiens. The protocol:
as §1

Assay [8] relates to human leukemia cells U937. The experiment in a line: Cell viability test (Resazurin), U937 cells. As to conditions: Homo sapiens. The protocol:
as §1

The mark [9] stands for this setting: 48 h, 0.1% FCS, Resazurin, read-out: inhibitory concentrations of cell growth activity IC50.
[10] abbreviates: grade of the IC50 of Table 2, read-out: evaluation of ability to inhibit cell growth activity (IC50).

Read-outs that look alike come from different tables or passages of the source.

For `CO[C@H]1C=C2[C@@H](CC[C@H](O)C2(C)C)[C@]2(C=O)CC[C@]3(C)[C@@H]([C@H](C)C/C=C/C(C)(C)OC)CC[C@@]3(C)[C@H]12` [Compound 23], the IC50 in assay [1] (Chlorocebus sabaeus, Vero, 48 h, 0.1% FCS, Resazurin, read-out: inhibitory concentrations of cell growth activity IC50) was 15.9 µM; in assay [2] (MDA-MB-231, 48 h, MDA-MB-231 cells, 48 hours, 0.1% FCS, Resazurin, read-out: inhibitory concentrations of cell growth activity IC50) it was 7.91 µM; in assay [2] (MDA-MB-231, MDA-MB-231 cells, grade of the IC50 of Table 2, read-out: evaluation of ability to inhibit cell growth activity (IC50)), below 8 µM; in assay [3] (setting [9]) it was 7.65 µM; in assay [3] (setting [10]), below 8 µM; in assay [4] (MDA-MB-468, 48 h, MDA-MB-468 cells, 48 hours, 0.1% FCS, Resazurin, read-out: inhibitory concentrations of cell growth activity IC50), 7.55 µM. Also, the IC50 in assay [4] (MDA-MB-468, MDA-MB-468 cells, grade of the IC50 of Table 2, read-out: evaluation of ability to inhibit cell growth activity (IC50)) is below 8 µM; in assay [5] (setting [9]), 15.4 µM; in assay [5] (setting [10]) it was 8 to 16 µM; in assay [6] (A549, 48 h, A549 cells, 48 hours, 0.1% FCS, Resazurin, read-out: inhibitory concentrations of cell growth activity IC50), 15.3 µM; in assay [6] (A549, A549 cells, grade of the IC50 of Table 2, read-out: evaluation of ability to inhibit cell growth activity (IC50)) it was 8 to 16 µM; in assay [7] (SW480, 48 h, SW480 cells, 48 hours, 0.1% FCS, Resazurin, read-out: inhibitory concentrations of cell growth activity IC50) it was 7.56 µM. The IC50 in assay [7] (SW480, SW480 cells, grade of the IC50 of Table 2, read-out: evaluation of ability to inhibit cell growth activity (IC50)) was below 8 µM; in assay [8] (U-937, 48 h, U937 cells, 48 hours, 0.1% FCS, Resazurin, read-out: inhibitory concentrations of cell growth activity IC50), 5.75 µM; in assay [8] (U-937, U937 cells, grade of the IC50 of Table 2, read-out: evaluation of ability to inhibit cell growth activity (IC50)) it was below 8 µM. Further, the “evaluation of ability to inhibit cell growth activity (IC50)” value in assay [1] (grade of the IC50 of Table 2) was “◯”; in assay [5] (grade of the IC50 of Table 2), “◯”; in assay [6] (A549 cells, grade of the IC50 of Table 2), “◯”.
